The values that follow come from US8546608B2, “Proteasome inhibitors and methods of using the same” (Cephalon, Inc., priority 2003, dated 2013).

Assay [1] has as its target T1, proteasome in Molt-4 cells (human leukemia) (Homo sapiens, UniProt P20618+P28074).
T1 sequence (P28074 60-263): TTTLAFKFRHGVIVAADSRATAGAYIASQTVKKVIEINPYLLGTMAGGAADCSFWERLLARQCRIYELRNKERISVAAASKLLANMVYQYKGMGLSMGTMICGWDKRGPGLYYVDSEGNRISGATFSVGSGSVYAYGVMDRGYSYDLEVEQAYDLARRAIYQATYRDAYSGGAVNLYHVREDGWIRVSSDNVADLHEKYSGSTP
T1 sequence (P20618 29-241): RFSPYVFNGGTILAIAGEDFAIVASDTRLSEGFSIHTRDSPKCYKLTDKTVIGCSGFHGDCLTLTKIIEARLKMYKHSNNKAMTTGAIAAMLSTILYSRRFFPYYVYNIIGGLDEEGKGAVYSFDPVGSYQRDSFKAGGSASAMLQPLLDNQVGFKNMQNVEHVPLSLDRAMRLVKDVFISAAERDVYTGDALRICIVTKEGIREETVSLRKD
In kind it is cell-based. The following applies: assay of Example E, inhibition of MOLT4; read-out: MOLT4 (EC50). An outline of the steps: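 Intact Molt-4 cells (6×10^6 cells/mL) in HEPES-buffered saline were preincubated with inhibitor 15 min at 37 °C, then given cell-permeable MeOSuc-FLF-AFC at 25 μM final.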

In assay [2] the target is T2, 20S Human Erythrocyte Proteasome (HEP) (Homo sapiens, UniProt P20618+P28074).
T2 construct: 20S Human Erythrocyte Proteasome (HEP), purchased from Immatics Biotechnologies Inc; purchased Immatics Biotechnologies Inc., Tübingen, Germany; host or cells: human erythrocytes (natural source)
Nature of the assay: Chymotrypsin-like activity of 20S Human Erythrocyte Proteasome (HEP), IC50 determination. The following applies: assay of Example C, inhibition of HEP. Format: biochemical. An outline of the steps: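 20S proteasome at 0.2 μg/mL (about 0.6 nM catalytic sites) in 20 mM Tris with 0.04% SDS, preincubated 15 min at 37° C with inhibitor before Suc-LLVY-AMC (100 μM final). AMC fluorescence read in the linear range; triplicates, IC50 from concentration series.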

Broadly, the EC50 is the midpoint of the concentration-response curve. Usually IC50 stands for the concentration that inhibits the measured activity by half. Lower therefore signals greater potency. For `CCCCOc1ccc(S(=O)(=O)N[C@@H](CCCNC(=N)N[N+](=O)[O-])C(=O)N[C@@H](CC(C)C)B2O[C@@H]3C[C@@H]4C[C@@H](C4(C)C)[C@]3(C)O2)cc1` [D.4.6, 4-Butoxyenzenesulfonamide, N-[(1S)-1-[[[(1R)-1-[(3aS,4S,6S,7aR)-hexahydro-3a,5,5-trimethyl-4,6-methano-1,3,2-benzodioxaborol-2-yl]-3-methylbutyl]amino]carbonyl]-4-[[imino(nitroamino)methyl]amino]butyl]], the EC50 in assay [1] is less than 200 nM. This molecule registered an IC50 in assay [2] of less than 100 nM.

As to `CCCCc1ccc(S(=O)(=O)N[C@@H](CCCNC(=N)N[N+](=O)[O-])C(=O)N[C@@H](CC(C)C)B2O[C@@H]3C[C@@H]4C[C@@H](C4(C)C)[C@]3(C)O2)cc1` [D.4.7, 4-Butyl-benzenesulfonamide, N-[(1S)-1-[[[(1R)-1-[(3aS,4S,6S,7aR)-hexahydro-3a,5,5-trimethyl-4,6-methano-1,3,2-benzodioxaborol-2-yl]-3-methylbutyl]amino]carbonyl]-4-[[imino(nitroamino)methyl]amino]butyl]], the EC50 in assay [1] was less than 200 nM. In addition, the 50% inhibitory concentration (IC50) in assay [2] was less than 100 nM.

As for `CCCCCc1ccc(S(=O)(=O)N[C@@H](CCCNC(=N)N[N+](=O)[O-])C(=O)N[C@@H](CC(C)C)B2O[C@@H]3C[C@@H]4C[C@@H](C4(C)C)[C@]3(C)O2)cc1` [D.4.8, 4-Pentyl-benzenesulfonamide, N-[(1S)-1-[[[(1R)-1-[(3aS,4S,6S,7aR)-hexahydro-3a,5,5-trimethyl-4,6-methano-1,3,2-benzodioxaborol-2-yl]-3-methylbutyl]amino]carbonyl]-4-[[imino(nitroamino)methyl]amino]butyl]], the EC50 in assay [1] was less than 200 nM. The molecule further came in with an IC50 in assay [2] of less than 100 nM.

With `CC(C)C[C@H](NC(=O)[C@@H](NS(=O)(=O)c1ccc2ccccc2c1)[C@@H](C)O)B1O[C@@H]2C[C@@H]3C[C@@H](C3(C)C)[C@]2(C)O1` [D.4.9, Naphthalene-2-sulfonamide, N-[(1S,2R)-1-[[[(1R)-1-[(3aS,4S,6S,7aR)-hexahydro-3a,5,5-trimethyl-4,6-methano-1,3,2-benzodioxaborol-2-yl]-3-methylbutyl]amino]carbonyl]-2-hydroxypropyl]], the 50% effective concentration (EC50) in assay [1] was less than 200 nM. In assay [2], this molecule returned an IC50 of less than 100 nM.

For the molecule `CCCCCCCNC(=O)N[C@@H](CCCNC(=N)N[N+](=O)[O-])C(=O)N[C@@H](CC(C)C)B1O[C@@H]2C[C@@H]3C[C@@H](C3(C)C)[C@]2(C)O1` [D.6.3, N-[(1S)-1-[[[(1R)-1-[(3aS,4S,6S,7aR)-hexahydro-3a,5,5-trimethyl-4,6-methano-1,3,2-benzodioxaborol-2-yl]-3-methylbutyl]amino]carbonyl]-4-[[imino(nitroamino)methyl]amino]butyl]-N′-heptyl urea], the EC50 in assay [1] was less than 200 nM. This molecule also registered an IC50 in assay [2] of less than 10 nM.

With `CCCCCCCCCCCNC(=O)N[C@@H](CCCNC(=N)N[N+](=O)[O-])C(=O)N[C@@H](CC(C)C)B1O[C@@H]2C[C@@H]3C[C@@H](C3(C)C)[C@]2(C)O1` [D.6.5, N-[(1S)-1-[[[(1R)-1-[(3aS,4S,6S,7aR)-hexahydro-3a,5,5-trimethyl-4,6-methano-1,3,2-benzodioxaborol-2-yl]-3-methylbutyl]amino]carbonyl]-4-[[imino(nitroamino)methyl]amino]butyl]-N′-undecylurea], in assay [1], the EC50 is less than 200 nM. The IC50 in assay [2] is less than 10 nM.

For `CCCCc1ccc(NC(=O)N[C@@H](CCCNC(=N)N[N+](=O)[O-])C(=O)N[C@@H](CC(C)C)B2O[C@@H]3C[C@@H]4C[C@@H](C4(C)C)[C@]3(C)O2)cc1` [D.6.8, N-[(1S)-1-[[[(1R)-1-[(3aS,4S,6S,7aR)-hexahydro-3a,5,5-trimethyl-4,6-methano-1,3,2-benzodioxaborol-2-yl]-3-methylbutyl]amino]carbonyl]-4-[[imino(nitroamino)methyl]amino]butyl]-N′-(4-butylphenyl) urea], the EC50 in assay [1] is less than 200 nM. In assay [2], the IC50 is less than 100 nM.

For `CCCCCCCOc1ccc(NC(=O)N[C@@H](CCCNC(=N)N[N+](=O)[O-])C(=O)N[C@@H](CC(C)C)B2O[C@@H]3C[C@@H]4C[C@@H](C4(C)C)[C@]3(C)O2)cc1` [D.6.9, N-[(1S)-1-[[[(1R)-1-[(3aS,4S,6S,7aR)-hexahydro-3a,5,5-trimethyl-4,6-methano-1,3,2-benzodioxaborol-2-yl]-3-methylbutyl]amino]carbonyl]-4-[[imino(nitroamino)methyl]amino]butyl]-N′-(4-heptyloxylphenyl) urea], the EC50 in assay [1] was less than 200 nM. Besides, the IC50 in assay [2] was less than 10 nM.

For `COc1ccccc1/C=C/C(=O)N[C@@H](CCCNC(=N)N[N+](=O)[O-])C(=O)N[C@@H](CC(C)C)B(O)O` [D.7.1, Boronic acid, [(1R)-1-[[(2S)-5-[[imino(nitroamino)methyl]amino]-2-[[(2E)-3-(2-methoxyphenyl)-1-oxoprop-2-enyl]amino]-1-oxopentyl]amino]-3-methylbutyl]], the EC50 in assay [1] is 2000 to 10000 nM. Besides, in assay [2], the 50% inhibitory concentration (IC50) is less than 10 nM.

For `C/C(=C\c1ccccc1)C(=O)N[C@@H](CCCNC(=N)N[N+](=O)[O-])C(=O)N[C@@H](CC(C)C)B(O)O` [D.7.2, Boronic acid, [(1R)-1-[[(2S)-5-[[imino(nitroamino)methyl]amino]-2-[((E)-2-methyl-3-phenylacryl)amino]-1-oxopentyl]amino]-3-methylbutyl]], the 50% effective concentration (EC50) in assay [1] fell in the range of 2000 to 10000 nM. The molecule also showed an IC50 in assay [2] of less than 10 nM.

In the case of `Cc1ccc(CCCC(=O)N[C@@H](CCCNC(=N)N[N+](=O)[O-])C(=O)N[C@@H](CC(C)C)B(O)O)cc1` [D.7.3, Boronic acid, [(1R)-1-[[(2S)-5-[[imino(nitroamino)methyl]amino]-2-[(4-(4-methylphenyl)butanoyl)amino]-1-oxopentyl]amino]-3-methylbutyl]], the EC50 in assay [1] lay in the range of 2000 to 10000 nM. Besides, in assay [2], the IC50 was less than 10 nM.

With `CC(C)C[C@H](NC(=O)[C@H](CCCNC(=N)N[N+](=O)[O-])NC(=O)COc1ccc(C(C)C)cc1)B(O)O` [D.7.5, Boronic acid, [(1R)-1-[[(2S)-5-[[imino(nitroamino)methyl]amino]-2-[(2-(4-isopropylphenoxy)acetyl)amino]-1-oxopentyl]amino]-3-methylbutyl]], the EC50 in assay [1] lay within 200 to 2000 nM. Further, in assay [2], the IC50 is less than 10 nM.

Take `CC(C)C[C@H](NC(=O)[C@H](CCCNC(=N)N[N+](=O)[O-])NC(=O)CCCC(=O)c1ccccc1)B(O)O` [D.7.6, Boronic acid, [(1R)-1-[[(2S)-5-[[imino(nitroamino)methyl]amino]-2-[(5-oxo-5-phenylpentanoyl)amino]-1-oxopentyl]amino]-3-methylbutyl]]: in assay [1], the EC50 was greater than 10000 nM. The IC50 in assay [2] was less than 10 nM.

As for `CCN(CC)c1ccc(C(=O)N[C@@H](CCCNC(=N)N[N+](=O)[O-])C(=O)N[C@@H](CC(C)C)B(O)O)cc1` [D.7.8, Boronic acid, [(1R)-1-[[(2S)-5-[[imino(nitroamino)methyl]amino]-2-[(4-diethylaminobenzoyl)amino]-1-oxopentyl]amino]-3-methylbutyl]], in assay [1], the EC50 is greater than 10000 nM. The IC50 in assay [2] was less than 10 nM.

Turning to `CC(C)C[C@H](NC(=O)[C@H](CCCNC(=N)N[N+](=O)[O-])NC(=O)c1ccc(C(C)C)cc1)B(O)O` [D.7.11, Boronic acid, [(1R)-1-[[(2S)-5-[[imino(nitroamino)methyl]amino]-2-[(4-isopropylbenzoyl)amino]-1-oxopentyl]amino]-3-methylbutyl]], the EC50 in assay [1] is 2000 to 10000 nM. For the same molecule, the half-inhibitory concentration (IC50) in assay [2] was less than 10 nM.
